Laboratory results taken from patent publication US7915292B2, “Antibacterial quinoline derivatives” (Janssen Pharmaceutica NV, priority 2005, dated 2011).
Converted amounts (≈) assume the structure as drawn. Structures can show the parent of a compound that is named as a salt.

Columns and labels:
[1] = tested on: Mycobacterium tuberculosis (strain H37RV); experiment: In-vitro method for testing compounds against M. tuberculosis (resazurin growth inhibition); type: cell-based; conditions: 7 days incubation; for IC50: Mycobacterium tuberculosis, 168 h, read-out: M. tuberculosis pIC50 (converted)
M. Smegmatis ATCC607 = experiment: In-vitro anti-bacterial activity against strain M. smegmatis ATCC607 (Alamar Blue growth inhibition); type: cell-based; conditions: 48 hours incubation; for IC50: Mycolicibacterium smegmatis, read-out: M. smegmatis pIC50 (converted)
Procedure: Serial five-fold dilutions (45 μl in 180 μl) were made directly in the microtiter plates from column 2 to 11 using a customised robot system (Zymark Corp., Hopkinton, Mass.). Pipette tips were changed after every 3 dilutions to minimize pipetting errors with high hydrophobic compounds. Untreated control samples with (column 1) and without (column 12) inoculum were included in each microtiter plate. Approximately 250 CFU per well of bacteria inoculum, in a volume of 100 μl in 2.8× Mueller-Hinton broth medium, was added to the rows […]. The same volume of broth medium without inoculum was added to column 12 in row A to H. The cultures were incubated at 37° C. for 48 hours in a humidified 5% CO2 atmosphere (incubator with open air valve and continuous ventilation). At the end of incubation, two days after inoculation, the bacterial growth was quantitated fluorometrically. Therefore Alamar Blue (10×) was added to all wells in a volume of 20 μl and plates were incubated for another 2 hours at […] The fluorescence was read in a computer-controlled fluorometer (Cytofluor, Biosearch) at an excitation wavelength of 530 nm and an emission wavelength of 590 nm (gain 30). The percentage growth inhibition achieved by the compounds was calculated according to standard methods and expressed as pIC50 values.

ECO 25922 = experiment: Microtitre plate assay, IC90 determination, ECO 25922; type: cell-based, E. coli; conditions: 90% inhibitory concentration for bacterial growth, strain ECO 25922, 24 hours at 37° C.; for IC90: Escherichia coli, read-out: IC90 (μg/ml) ECO 25922
Procedure: Stocks (0.5 ml/tube) were stored at -70° C. until use. Bacteria titrations were performed in microtiter plates to detect the TCID50, in which the TCID50 represents the dilution that gives rise to bacterial growth in 50% of inoculated cultures. In general, an inoculum level of approximately 100 TCID50 was used for susceptibility testing. […] Serial five-fold dilutions (45 μl in 180 μl) were made directly in the microtiter plates from column 2 to reach column 11. Untreated control samples with (column 1) and without (column 12) inoculum were included in each microtiter plate. Depending on the bacteria type, approximately 10 to 60 CFU per well of bacteria inoculum (100 TCID50), in a volume of 100 μl in 2.8× Mueller-Hinton broth medium, was added to the rows […]. The same volume of broth medium without inoculum was added to column 12 in row A to H. The cultures were incubated at 37° C. for 24 hours under a normal atmosphere (incubator with open air valve and continuous ventilation). At the end of incubation, one day after inoculation, the bacterial growth was quantitated fluorometrically. Therefore resazurin (0.6 mg/ml) was added in a volume of 20 μl to all wells 3 hours after inoculation, and the plates were re-incubated overnight. A change in colour from blue to pink indicated the growth of bacteria. The fluorescence was read in a computer-controlled fluorometer (Cytofluor Biosearch) at an excitation wavelength of 530 nm and an emission wavelength of 590 nm. The % growth inhibition achieved by the compounds was calculated according to standard methods. The IC90 (expressed in μg/ml) was defined as the 90% inhibitory concentration for bacterial growth.

SMILES	IC50 (M. Smegmatis ATCC607)	M. tuberculosis pIC50 [1]	M. smegmatis pIC50 (M. Smegmatis ATCC607)	also measured
CNC(=O)CN(C)C(c1ccccc1)c1cc2cc(Br)ccc2nc1OC (stereo not drawn) [Compound 3]	89.1 µM	–	–	IC50 [1]: > 100 µM; melting point: 190 °C
COc1nc2ccc(Br)cc2cc1C(c1ccccc1)N(CC(=O)N1CCSCC1)Cc1ccccc1 (stereo not drawn) [Compound 106]	–	<4	6.4	IC90 (μg/ml) ECO 25922 (ECO 25922): 14.5 µg/mL (≈ 25.1 µM)
COc1nc2ccc(Br)cc2cc1C(c1ccccc1)N(CC(=O)N1CCOCC1)Cc1cccnc1 (stereo not drawn) [Compound 111]	–	–	5.8	IC90 (μg/ml) ECO 25922 (ECO 25922): 14.1 µg/mL (≈ 25.1 µM)
CCOC(=O)CN(Cc1ccccc1)C(c1ccccc1)c1cc2cc(C)ccc2nc1-c1ccccc1 (stereo not drawn) [Compound 150]	0.398 µM	–	–	IC50 [1]: 39.8 µM
CCOC(=O)CN(Cc1ccccc1)C(c1ccccc1)c1cc2cc(C#N)ccc2nc1OC (stereo not drawn) [Compound 151]	–	–	–	melting point: 148 °C
Cc1ccc2nc(-c3ccccc3)c(C(c3ccccc3)N(CC(=O)N3CCSC3)Cc3ccccc3)cc2c1 (stereo not drawn) [Compound 65]	–	5.0	6.5	IC90 (μg/ml) ECO 25922 (ECO 25922): 13.7 µg/mL (≈ 25.2 µM)
Cc1ccc2nc(-c3ccccc3)c(C(c3ccccc3)N(CC(=O)N3CCCC3)Cc3ccccc3)cc2c1 (stereo not drawn) [Compound 64]	–	5.0	6.5	–
COc1nc2ccc(C#N)cc2cc1C(c1ccccc1)N(CC(=O)N1CCCC1)Cc1ccccc1 (stereo not drawn) [Compound 122]	63.1 µM	–	–	IC90 (ECO 25922): 12.3 µg/mL (≈ 25.1 µM); melting point: 161 °C
CNC(=O)CN(Cc1ccccc1)C(c1ccccc1)c1cc2cc(Br)ccc2nc1-c1ccccc1 (stereo not drawn) [Compound 52]	–	–	5.8	IC90 (μg/ml) ECO 25922 (ECO 25922): 13.8 µg/mL (≈ 25.1 µM)
COc1nc2ccc(Br)cc2cc1C(c1ccccc1)N(CC(=O)N1CCOCC1)Cc1ccccc1 (stereo not drawn) [Compound 105]	–	–	6.0	IC90 (μg/ml) ECO 25922 (ECO 25922): 14.1 µg/mL (≈ 25.2 µM)
Cc1ccc2nc(-c3ccccc3)c(C(c3ccccc3)N(CC(=O)N3CCc4ccccc4C3)Cc3ccccc3)cc2c1 (stereo not drawn) [Compound 74]	–	5.0	5.2	IC90 (μg/ml) ECO 25922 (ECO 25922): 14.8 µg/mL (≈ 25.2 µM)
COc1nc2ccc(Br)cc2cc1C(c1ccccc1)N(CC(=O)N1CCOCC1)Cc1ccoc1 (stereo not drawn) [Compound 102]	–	–	5.8	IC90 (μg/ml) ECO 25922 (ECO 25922): 13.8 µg/mL (≈ 25.1 µM)
CN(C)C(=O)CN(Cc1ccccc1)C(c1ccccc1)c1cc2cc(Br)ccc2nc1-c1ccccc1 (stereo not drawn) [Compound 53]	0.316 µM	–	–	IC50 [1]: 20 µM; IC90 (ECO 25922): 14.2 µg/mL (≈ 25.2 µM); melting point: 110 °C
COc1nc2ccc(Br)cc2cc1C(c1ccccc1)N(CC(=O)N1CCCC1)Cc1ccccc1 (stereo not drawn) [Compound 103]	–	–	4.5	IC90 (μg/ml) ECO 25922 (ECO 25922): 13.7 µg/mL (≈ 25.2 µM)
Cc1ccc2nc(-c3ccccc3)c(C(c3ccccc3)N(CC(=O)N(C)CC#N)Cc3ccccc3)cc2c1 (stereo not drawn) [Compound 46]	–	5.0	5.8	–
CCOC(=O)CN(Cc1ccccc1)C(c1ccccc1)c1cc2cc(Br)ccc2nc1-c1ccccc1 (stereo not drawn) [Compound 146]	0.501 µM	–	–	IC50 [1]: 50.1 µM; IC90 (ECO 25922): 14.2 µg/mL (≈ 25.1 µM)
CCOC(=O)CN(Cc1ccccc1)C(c1ccccc1)c1cc2cc(-c3cccnc3)ccc2nc1-c1ccccc1 (stereo not drawn) [Compound 152]	2.51 µM	–	–	IC90 (ECO 25922): 14.2 µg/mL (≈ 25.2 µM)
Cc1ccc2nc(-c3ccccc3)c(C(c3ccccc3)N(C)CCN(C)C)cc2c1 (stereo not drawn) (as salt: oxalate) [Compound 37]	–	–	–	melting point: 142 °C
Cc1ccc2nc(-c3ccccc3)c(C(c3ccccc3)N(CC(=O)N(C)C)Cc3ccccc3)cc2c1 (stereo not drawn) [Compound 45]	1 µM	–	–	IC50 [1]: 10 µM
Cc1ccc2nc(-c3ccccc3)c(C(c3ccccc3)N(CC(=O)N(C)C(C)C)Cc3ccccc3)cc2c1 (stereo not drawn) [Compound 41]	0.1 µM	–	–	IC50 [1]: 6.31 µM; IC90 (ECO 25922): 13.3 µg/mL (≈ 25.2 µM); melting point: 126 °C
Cc1ccc2nc(-c3ccccc3)c(C(c3ccccc3)N(CC(=O)N3CC(C)OC(C)C3)Cc3ccccc3)cc2c1 (stereo not drawn) [Compound 71]	–	5.1	5.7	–

SMILES	IC50 (M. Smegmatis ATCC607)	M. tuberculosis pIC50 [1]	M. smegmatis pIC50 (M. Smegmatis ATCC607)	also measured
COc1cccc(CN(CCN(C)C)C(c2ccccc2)c2cc3cc(Br)ccc3nc2OC)c1 (stereo not drawn) (as salt: oxalate) [Compound 20]	–	–	–	melting point: 142 °C
CCCN(CCC)C(=O)CN(Cc1ccccc1)C(c1ccccc1)c1cc2cc(C)ccc2nc1-c1ccccc1 (stereo not drawn) [Compound 49]	–	4.6	5.2	–
O=C(CN(Cc1ccccc1)C(c1ccccc1)c1cc2ccccc2nc1-c1ccccc1)N1CCCC1 (stereo not drawn) [Compound 55]	–	4.3	6.0	IC90 (μg/ml) ECO 25922 (ECO 25922): 12.9 µg/mL (≈ 25.2 µM)
COc1nc2ccc(C)cc2cc1C(c1ccccc1)N(CC(=O)N1CCOCC1)Cc1ccccc1 (stereo not drawn) [Compound 59]	1.58 µM	–	–	IC90 (ECO 25922): 12.4 µg/mL (≈ 25 µM); melting point: 126 °C
COc1nc2ccc(Br)cc2cc1C(c1ccccc1)N(CC(=O)N1CCOCC1)Cc1ccccc1Cl (stereo not drawn) [Compound 108]	–	–	5.9	IC90 (μg/ml) ECO 25922 (ECO 25922): 14.9 µg/mL (≈ 25 µM)
CCOC(=O)CN(C(C)C)C(c1ccccc1)c1cc2cc(Br)ccc2nc1OC (stereo not drawn) [Compound 133]	–	4.4	5.7	–
COc1nc2ccc(Br)cc2cc1C(c1ccccc1)N(CCN(C)C)c1ccccc1 (stereo not drawn) [Compound 18]	2 µM	–	–	melting point: 120 °C
Cc1ccc2nc(-c3ccccc3)c(C(c3ccccc3)N(CC(=O)N3CCOCC3)Cc3ccccc3)cc2c1 (stereo not drawn) [Compound 68]	–	5.1	6.5	–
Cc1ccc2nc(-c3ccccc3)c(C(c3ccccc3)N(CC(=O)N3CCN(c4ccccn4)CC3)Cc3ccccc3)cc2c1 (stereo not drawn) [Compound 75]	–	5.4	–	–
CCN(CC)C(=O)CN(Cc1ccccc1)C(c1ccccc1)c1cc2cc(C)ccc2nc1-c1ccccc1 (stereo not drawn) [Compound 47]	0.316 µM	–	–	IC50 [1]: 6.31 µM
Cc1ccc2nc(-c3ccccc3)c(C(c3ccccc3)N(CC(=O)N3CCN(Cc4ccccc4)CC3)Cc3ccccc3)cc2c1 (stereo not drawn) [Compound 78]	–	6.05	–	–
COc1nc2ccc(Br)cc2cc1C(c1ccccc1)N(C)CC(=O)N1CCSCC1 (stereo not drawn) [Compound 88]	–	4.05	4.9	–
CCOC(=O)CN(C)C(c1ccccc1)c1cc2cc(Br)ccc2nc1OC (stereo not drawn) [Compound 131]	1 µM	–	–	IC50 [1]: 31.6 µM
Cc1ccc2nc(-c3ccccc3)c(C(c3ccccc3)N(CC(=O)N3CCC(C)CC3)Cc3ccccc3)cc2c1 (stereo not drawn) [Compound 67]	–	5.7	6.0	–
Cc1ccc2nc(-c3ccccc3)c(C(c3ccccc3)N(CC(=O)N3CCN(c4ncccn4)CC3)Cc3ccccc3)cc2c1 (stereo not drawn) [Compound 76]	–	5.0	–	–
COc1nc2ccc(C#N)cc2cc1C(c1ccccc1)N(CC(=O)N1CCOCC1)Cc1ccccc1 (stereo not drawn) [Compound 124]	–	–	5.05	IC90 (μg/ml) ECO 25922 (ECO 25922): 12.7 µg/mL (≈ 25.1 µM)
CCOC(=O)CN(Cc1cccc2ncccc12)C(c1ccccc1)c1cc2cc(Br)ccc2nc1OC (stereo not drawn) [Compound 145]	31.6 µM	–	–	melting point: 96 °C
COc1nc2ccc(Br)cc2c(Cl)c1C(c1ccccc1)N(C)CC(=O)N1CCSCC1 (stereo not drawn) [Compound 97]	–	4.2	4.4	–
CCN(Cc1ccccc1)C(=O)CN(Cc1ccccc1)C(c1ccccc1)c1cc2cc(C)ccc2nc1-c1ccccc1 (stereo not drawn) [Compound 48]	–	4.1	–	–
COc1nc2ccc(Br)cc2cc1C(c1ccccc1)N(CCC(=O)N1CCOCC1)Cc1ccccc1 (stereo not drawn) [Compound 120]	–	–	5.6	IC90 (μg/ml) ECO 25922 (ECO 25922): 14.4 µg/mL (≈ 25.1 µM)
